Mutagenic call data for three compounds are collected here from PubChem BioAssay AID1259407 (Chemical Carcinogenesis Research Information System (CCRIS), 2018).

SMILES strings stand for the structures. The source made the active and inactive calls. No rule for the calls is given here.

This series relates to CCRIS mutagenicity, Ames/micronucleus/aberration tests. The series is described as follows: CCRIS mutagenicity studies.
Where [1] appears, read: Test System: AMES SALMONELLA TYPHIMURIUM, Strain/Indicator: TA98, Metabolic Activation: NONE, Method: STANDARD PLATE.
Setting [2] is: Test System: AMES SALMONELLA TYPHIMURIUM, Strain/Indicator: TA100, Metabolic Activation: NONE, Method: STANDARD PLATE.
[3] abbreviates: Test System: AMES SALMONELLA TYPHIMURIUM, Strain/Indicator: TA1535, Metabolic Activation: NONE, Method: STANDARD PLATE.

As for `CN(C)CCO`, the mutagenic call is “inactive; negative” (Test System: AMES SALMONELLA TYPHIMURIUM, Strain/Indicator: TA97, Metabolic Activation: HAMSTER, LIVER, AROCLOR 1254 (10 OR 30%), Method: PREINCUBATION); “inactive; negative” (Test System: AMES SALMONELLA TYPHIMURIUM, Strain/Indicator: TA97, Metabolic Activation: NONE, Method: PREINCUBATION); “inactive; negative” (Test System: AMES SALMONELLA TYPHIMURIUM, Strain/Indicator: TA97, Metabolic Activation: RAT, LIVER, S-9, AROCLOR 1254 (10 OR 30%), Method: PREINCUBATION); “inactive; negative” (Test System: AMES SALMONELLA TYPHIMURIUM, Strain/Indicator: TA98, Metabolic Activation: HAMSTER, LIVER, S-9, AROCLOR 1254 (10%), Method: PREINCUBATION); “inactive; negative” (Test System: AMES SALMONELLA TYPHIMURIUM, Strain/Indicator: TA98, Metabolic Activation: HAMSTER, LIVER, S-9, AROCLOR 1254 (30%), Method: PREINCUBATION); “inactive; negative” (Test System: AMES SALMONELLA TYPHIMURIUM, Strain/Indicator: TA98, Metabolic Activation: NONE, Method: PREINCUBATION). The mutagenic call was “inactive; negative” under setting [1]; “inactive; negative” (Test System: AMES SALMONELLA TYPHIMURIUM, Strain/Indicator: TA98, Metabolic Activation: RAT, LIVER, S-9, AROCLOR 1254 (10%), Method: PREINCUBATION); “inactive; negative” (Test System: AMES SALMONELLA TYPHIMURIUM, Strain/Indicator: TA98, Metabolic Activation: RAT, LIVER, S-9, AROCLOR 1254 (30%), Method: PREINCUBATION); “inactive; negative” (Test System: AMES SALMONELLA TYPHIMURIUM, Strain/Indicator: TA98, Metabolic Activation: RAT, LIVER, S-9, AROCLOR 1254, Method: STANDARD PLATE); “inactive; negative” (Test System: AMES SALMONELLA TYPHIMURIUM, Strain/Indicator: TA100, Metabolic Activation: HAMSTER, LIVER, S-9, AROCLOR 1254 (10%), Method: PREINCUBATION); “inactive; negative” (Test System: AMES SALMONELLA TYPHIMURIUM, Strain/Indicator: TA100, Metabolic Activation: HAMSTER, LIVER, S-9, AROCLOR 1254 (30%), Method: PREINCUBATION). The mutagenic call is, setting by setting: (Test System: AMES SALMONELLA TYPHIMURIUM, Strain/Indicator: TA100, Metabolic Activation: NONE, Method: PREINCUBATION) “inactive; negative”; under setting [2], “inactive; negative”; (Test System: AMES SALMONELLA TYPHIMURIUM, Strain/Indicator: TA100, Metabolic Activation: RAT, LIVER, S-9, AROCLOR 1254 (10%), Method: PREINCUBATION) “inactive; negative”; (Test System: AMES SALMONELLA TYPHIMURIUM, Strain/Indicator: TA100, Metabolic Activation: RAT, LIVER, S-9, AROCLOR 1254 (30%), Method: PREINCUBATION) “inactive; negative”; (Test System: AMES SALMONELLA TYPHIMURIUM, Strain/Indicator: TA100, Metabolic Activation: RAT, LIVER, S-9, AROCLOR 1254, Method: STANDARD PLATE) “inactive; negative”; (Test System: AMES SALMONELLA TYPHIMURIUM, Strain/Indicator: TA1535, Metabolic Activation: HAMSTER, LIVER, S-9, AROCLOR 1254 (10%), Method: PREINCUBATION) “inactive; negative”. Moreover, the mutagenic call reads like this: (Test System: AMES SALMONELLA TYPHIMURIUM, Strain/Indicator: TA1535, Metabolic Activation: HAMSTER, LIVER, S-9, AROCLOR 1254 (30%), Method: PREINCUBATION) “inactive; negative”; (Test System: AMES SALMONELLA TYPHIMURIUM, Strain/Indicator: TA1535, Metabolic Activation: NONE, Method: PREINCUBATION) “inactive; negative”; under setting [3], “inactive; negative”; (Test System: AMES SALMONELLA TYPHIMURIUM, Strain/Indicator: TA1535, Metabolic Activation: RAT, LIVER, S-9, AROCLOR 1254 (10%), Method: PREINCUBATION) “inactive; negative”; (Test System: AMES SALMONELLA TYPHIMURIUM, Strain/Indicator: TA1535, Metabolic Activation: RAT, LIVER, S-9, AROCLOR 1254 (30%), Method: PREINCUBATION) “inactive; negative”; (Test System: AMES SALMONELLA TYPHIMURIUM, Strain/Indicator: TA1535, Metabolic Activation: RAT, LIVER, S-9, AROCLOR 1254, Method: STANDARD PLATE) “inactive; negative”. The mutagenic call reads like this: (Test System: AMES SALMONELLA TYPHIMURIUM, Strain/Indicator: TA1537, Metabolic Activation: HAMSTER, LIVER, S-9, AROCLOR 1254 (10%), Method: PREINCUBATION) “inactive; negative”; (Test System: AMES SALMONELLA TYPHIMURIUM, Strain/Indicator: TA1537, Metabolic Activation: HAMSTER, LIVER, S-9, AROCLOR 1254 (30%), Method: PREINCUBATION) “inactive; negative”; (Test System: AMES SALMONELLA TYPHIMURIUM, Strain/Indicator: TA1537, Metabolic Activation: NONE, Method: PREINCUBATION) “inactive; negative”; (Test System: AMES SALMONELLA TYPHIMURIUM, Strain/Indicator: TA1537, Metabolic Activation: NONE, Method: STANDARD PLATE) “inactive; negative”; (Test System: AMES SALMONELLA TYPHIMURIUM, Strain/Indicator: TA1537, Metabolic Activation: RAT, LIVER, S-9, AROCLOR 1254 (10%), Method: PREINCUBATION) “inactive; negative”; (Test System: AMES SALMONELLA TYPHIMURIUM, Strain/Indicator: TA1537, Metabolic Activation: RAT, LIVER, S-9, AROCLOR 1254 (30%), Method: PREINCUBATION) “inactive; negative”. The mutagenic call is, setting by setting: (Test System: AMES SALMONELLA TYPHIMURIUM, Strain/Indicator: TA1537, Metabolic Activation: RAT, LIVER, S-9, AROCLOR 1254, Method: STANDARD PLATE) “inactive; negative”; (Test System: AMES SALMONELLA TYPHIMURIUM, Strain/Indicator: TA1538, Metabolic Activation: NONE, Method: STANDARD PLATE) “inactive; negative”; (Test System: AMES SALMONELLA TYPHIMURIUM, Strain/Indicator: TA1538, Metabolic Activation: RAT, LIVER, S-9, AROCLOR 1254, Method: STANDARD PLATE) “inactive; negative”; (Test System: CHINESE HAMSTER OVARY, Strain/Indicator: CHO-K1-BH4, Metabolic Activation: NONE) “inactive; negative”; (Test System: CHINESE HAMSTER OVARY, Strain/Indicator: CHO-K1-BH4, Metabolic Activation: RAT, LIVER, S-9, AROCLOR 1254) “inactive; negative”.
In the case of `Oc1ccc2[nH]c3ccccc3c2c1`, the mutagenic call (Test System: CHINESE HAMSTER OVARY, Strain/Indicator: CHO-K1-BH4 (HGPRT)/6-THIOGUANINE, Metabolic Activation: RAT, LIVER, S-9, AROCLOR (4%)) is “active; positive”.
Take `COP(=O)(NC(C)=O)SC` (stereo unspecified): the mutagenic call reads like this: under setting [1], “inactive; negative”; under setting [2], “inactive; negative”; under setting [3], “inactive; negative”; (Test System: Mouse Lymphoma, Strain/Indicator: L5178Y (TK+/TK-), Metabolic Activation: None, Method: Suspension/Plate) “active; positive; dose-dependent increase”; (Test System: Mouse Lymphoma, Strain/Indicator: L5178Y (TK+/TK-), Metabolic Activation: Rat, liver S-9, Method: Suspension/Plate) “active; positive; dose-dependent increase”.
